Source: US6441193B1, “Estrogen agonists/antagonists” (Pfizer Inc., priority 1995, dated 2002)

How the values were obtained:
prostate = experiment: Effect on prostate weight (wet prostate weight after 14 days of daily subcutaneous injection); format: in vivo, rat; details: male Sprague-Dawley rats, s.c. daily for 14 days
Experimental: Male Sprague-Dawley rats, three months of age are administered by subcutaneous injection either vehicle (10% ethanol in water), estradiol (30 μg/kg), testosterone (1 mg/kg) or a compound of formula I daily for 14 days (n=6/group). After 14 days the animals are sacrificed, the prostate is removed and the wet prostate weight is determined. Mean weight is determined and statistical significance (p<0.05) is determined compared to the vehicle-treated group using Student's t-test.

ventral prostate = details: male rats; cited from earlier work

SMILES: C[C@]12CC[C@H]3[C@@H](CCC4=CC(=O)CC[C@@]43C)[C@@H]1CC[C@@H]2O [Testosterone, testosterone]
- wet prostate weight compared to vehicle (prostate; testosterone 1 mg/kg): no effect

SMILES: C[C@]12CC[C@@H]3c4ccc(O)cc4CC[C@H]3[C@@H]1CC[C@@H]2O [estrogen, estradiol]
- wet prostate weight compared to vehicle (prostate; 30 μg/kg): significantly reduces prostate weight

SMILES: O=C(c1ccc(OCCN2CCCCC2)cc1)c1c(-c2ccc(O)cc2)sc2cc(O)ccc12 [raloxifene, 6-hydroxy-2-(4-hydroxyphenyl)-3-[4-(2-piperidinoethoxy)benzoyl] benzo[b] thiophene]
- effect on ventral prostate (ventral prostate): regression of the ventral prostate
